Data: paper PMC6364906 (PLoS ONE, 2019)
≈ marks a conversion by molar mass, not a printed value.

What was measured:
bacterial dipeptidases = details: cited from earlier work
K. pneumoniae GRP-0107 = assay: MIC/MBC by broth microdilution (CLSI); assay type: cell-based, Klebsiella pneumoniae; details: geometric mean, wild-type strain
Method: (§1) The statistical significance of the difference in geometric means of MIC and MBC was determined with the Mann-Whitney U test.

P. aeruginosa GRP-0019 = assay type: cell-based; details: geometric mean, broth microdilution, wild-type strain
Method: as §1

P. aeruginosa GRP-0036 = assay type: cell-based; details: geometric mean, broth microdilution, MDR carbapenem resistant strain
Method: as §1

P. aeruginosa GRP-0049 = assay type: cell-based; details: geometric mean, broth microdilution, MDR carbapenem susceptible strain
Method: as §1

P. aeruginosa ATCC 27853 = assay: MIC/MBC by broth microdilution (CLSI); assay type: cell-based, Pseudomonas aeruginosa; details: geometric mean, wild-type reference strain
Method: as §1

SMILES	inhibition of bacterial dipeptidases (bacterial dipeptidases)	MIC [range] (K. pneumoniae GRP-0107) [mg/L]	MIC [range] (P. aeruginosa GRP-0019) [mg/L]	MIC [range] (P. aeruginosa GRP-0036) [mg/L]	MIC [range] (P. aeruginosa GRP-0049) [mg/L]	MIC [range] (P. aeruginosa ATCC 27853) [mg/L]
CC1(C)C[C@@H]1C(=O)N/C(=C\CCCCSC[C@H](N)C(=O)O)C(=O)O [cilastatin]	very inefficient inhibitor	–	–	–	–	–
C[C@@H](O)[C@H]1C(=O)N2C(C(=O)O)=C(SCCN=CN)C[C@H]12 [imipenem]	–	0.5 (≈ 1.67 µM)	0.5 (≈ 1.67 µM)	8 (≈ 26.7 µM)	1.2 (≈ 4.01 µM)	1.0 (≈ 3.34 µM)
